Data reported in the NIST ThermoML archive (doi:10.1021/acs.jced.5b00849).
Values joined by “and” are separate entries in the source; they are usually repeats but may differ in a detail not shown here. Identical values can stand only once. Numbers after ± are expanded uncertainties.

Columns and labels:
[1] = Boiling temperature at pressure P; settings: Liquid, Ebulliometric method (Recirculating still)
[2] = Liquid, Ebulliometric method (Recirculating still)
[3] = refractive index (Na D-line) (dimensionless); settings: 101 kPa, Liquid, Standard Abbe refractometry
[4] = refractive index (Na D-line) (dimensionless); xn = mol fraction of the nth substance listed; settings: 101 kPa, Liquid, Standard Abbe refractometry

CO [methanol]
[1]
Settings | Boiling temperature at pressure P [°C]
40 kPa | 42.6 ± 2.8
46.66 kPa | 46 ± 2.6
58.8 kPa | 51.2 ± 2.3
67.59 kPa | 54.4 ± 2.1
76.13 kPa | 57.5 ± 2.1

O [water]
Settings | refractive index, 293.2 K | refractive index, 298.2 K | vapor or sublimation pressure, 319.6 K [kPa] | vapor or sublimation pressure, 354.8 K [kPa] | vapor or sublimation pressure, 373.2 K [kPa]
[2] | – | – | 10.1 ± 4 | 50.6 ± 4 | 101.33 ± 4
[3] | 1.3332 ± 0.0004 | 1.3327 ± 0.0004 | – | – | –

O [water] + CC1CCC(=O)O1
[4], x2 = 0
Settings | refractive index
293.2 K | 1.3332 ± 0.0004
298.2 K | 1.3327 ± 0.0004

CC1CCC(=O)O1 (stereo not given) [γ-valerolactone]
Settings | refractive index | vapor or sublimation pressure
[2], 347.1 K | – | 0.67 kPa
[2], 356 K | – | 1.33 kPa
[2], 370.4 K | – | 2.67 ± 4 kPa
[2], 384.5 K | – | 5.07 ± 4 kPa
[2], 401.4 K | – | 10.1 ± 4 kPa and 10.13 ± 4 kPa
[2], 416.4 K | – | 17.33 ± 4 kPa
[2], 426.5 K | – | 24 ± 4 kPa
[2], 435.3 K | – | 31.6 ± 4 kPa
[2], 442.7 K | – | 39.46 ± 4 kPa
[2], 451.5 K | – | 50.6 ± 4 kPa and 50.66 ± 4 kPa
[2], 459.2 K | – | 62.26 ± 4 kPa
[2], 465.3 K | – | 73.06 ± 4 kPa
[2], 469 K | – | 80.53 ± 4 kPa
[2], 477.8 K | – | 101.19 ± 4 kPa
[2], 480.2 K | – | 101.33 ± 4 kPa
[3], 293.2 K | 1.4339 ± 0.0004 | –
[3], 298.2 K | 1.4316 ± 0.0004 | –

CC1CCC(=O)O1 (stereo not given) [γ-valerolactone] + O
refractive index, [4]
Settings | 293.2 K | 298.2 K
x1 = 0.0158 | 1.342 ± 0.0004 | 1.3411 ± 0.0004
x1 = 0.0318 | 1.3505 ± 0.0004 | 1.3499 ± 0.0004
x1 = 0.0532 | 1.3591 ± 0.0004 | 1.3585 ± 0.0004
x1 = 0.0789 | 1.3682 ± 0.0004 | 1.3671 ± 0.0004
x1 = 0.1066 | 1.3761 ± 0.0004 | 1.3751 ± 0.0004
x1 = 0.1405 | 1.3837 ± 0.0004 | 1.3826 ± 0.0004
x1 = 0.1855 | 1.3913 ± 0.0004 | 1.39 ± 0.0004
x1 = 0.2295 | 1.3987 ± 0.0004 | 1.397 ± 0.0004
x1 = 0.2964 | 1.4062 ± 0.0004 | 1.4046 ± 0.0004
x1 = 0.3833 | 1.4135 ± 0.0004 | 1.4119 ± 0.0004
x1 = 0.5097 | 1.4204 ± 0.0004 | 1.4186 ± 0.0004
x1 = 0.7092 | 1.4273 ± 0.0004 | 1.4259 ± 0.0004
x1 = 1 | 1.4339 ± 0.0004 | 1.4316 ± 0.0004
